The values that follow come from ChEMBL document CHEMBL5653631, “A Potent and Selective ULK1 Inhibitor Suppresses Autophagy and Sensitizes Cancer Cells to Nutrient Stress” (iScience, 2018).

What is called inhibition is the percentage by which the read-out fell short of the control.

Molecules are shown by their SMILES.

For assay [1], the target named is T1, Ephrin type-A receptor 3 (Homo sapiens) (UniProt P29320).
T1 sequence (whole entry): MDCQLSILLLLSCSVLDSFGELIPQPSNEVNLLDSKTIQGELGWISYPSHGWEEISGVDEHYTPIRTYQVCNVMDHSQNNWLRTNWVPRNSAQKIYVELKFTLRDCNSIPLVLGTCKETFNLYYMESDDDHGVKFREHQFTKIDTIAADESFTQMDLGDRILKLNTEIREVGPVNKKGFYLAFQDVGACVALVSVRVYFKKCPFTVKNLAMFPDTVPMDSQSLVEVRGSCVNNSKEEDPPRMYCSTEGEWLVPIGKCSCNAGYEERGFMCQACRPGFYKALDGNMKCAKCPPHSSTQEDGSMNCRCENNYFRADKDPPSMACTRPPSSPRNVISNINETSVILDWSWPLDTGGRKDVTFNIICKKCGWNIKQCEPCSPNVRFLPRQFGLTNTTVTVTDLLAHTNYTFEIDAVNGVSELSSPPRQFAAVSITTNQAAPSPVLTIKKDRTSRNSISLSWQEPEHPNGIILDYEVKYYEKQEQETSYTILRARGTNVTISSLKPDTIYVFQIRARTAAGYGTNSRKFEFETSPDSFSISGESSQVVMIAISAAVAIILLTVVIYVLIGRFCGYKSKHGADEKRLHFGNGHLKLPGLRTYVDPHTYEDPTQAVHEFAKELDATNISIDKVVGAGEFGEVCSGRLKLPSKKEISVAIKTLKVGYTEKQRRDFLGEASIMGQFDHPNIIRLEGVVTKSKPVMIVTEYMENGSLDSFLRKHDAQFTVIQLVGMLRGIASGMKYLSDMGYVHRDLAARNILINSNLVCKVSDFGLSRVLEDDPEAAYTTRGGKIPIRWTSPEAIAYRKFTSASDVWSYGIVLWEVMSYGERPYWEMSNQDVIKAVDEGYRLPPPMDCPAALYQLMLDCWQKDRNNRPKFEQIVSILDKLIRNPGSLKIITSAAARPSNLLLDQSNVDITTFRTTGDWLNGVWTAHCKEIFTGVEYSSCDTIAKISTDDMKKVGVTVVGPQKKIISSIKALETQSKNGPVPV
The assay is described as follows: Inhibition of human recombinant EphA3 at 15 nM related to control ULK1.

The target in assay [2] is Protein kinase C theta type (Homo sapiens) (UniProt Q04759). Description: Inhibition of human recombinant PKCt at 15 nM related to control ULK1.
Chain of Protein kinase C theta type (Homo sapiens) (Q04759 whole entry, looked up): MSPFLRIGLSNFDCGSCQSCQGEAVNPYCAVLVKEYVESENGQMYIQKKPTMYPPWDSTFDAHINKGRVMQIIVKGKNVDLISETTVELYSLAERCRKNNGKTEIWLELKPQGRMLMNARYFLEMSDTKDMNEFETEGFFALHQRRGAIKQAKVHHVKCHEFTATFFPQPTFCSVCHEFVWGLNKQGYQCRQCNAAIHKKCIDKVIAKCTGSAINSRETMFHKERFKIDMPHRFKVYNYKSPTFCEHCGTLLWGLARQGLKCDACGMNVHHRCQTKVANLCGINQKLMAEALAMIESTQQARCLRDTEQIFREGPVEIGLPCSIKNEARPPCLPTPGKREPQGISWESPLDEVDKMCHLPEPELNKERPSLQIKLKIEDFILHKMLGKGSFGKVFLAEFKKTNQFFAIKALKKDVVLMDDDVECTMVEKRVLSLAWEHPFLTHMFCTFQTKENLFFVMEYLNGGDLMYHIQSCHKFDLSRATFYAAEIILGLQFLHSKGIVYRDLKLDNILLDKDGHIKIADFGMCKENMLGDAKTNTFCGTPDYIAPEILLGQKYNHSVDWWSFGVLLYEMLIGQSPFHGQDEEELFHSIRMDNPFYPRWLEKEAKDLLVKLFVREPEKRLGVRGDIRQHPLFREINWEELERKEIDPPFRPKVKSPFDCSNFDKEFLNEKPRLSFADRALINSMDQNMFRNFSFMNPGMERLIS
The target in assay [3] is Mitogen-activated protein kinase kinase kinase 20 (Homo sapiens) (UniProt Q9NYL2). The assay is described as follows: Inhibition of human recombinant ZAK at 15 nM in presence of ATP by radiometric assay relative to control.
Chain of Mitogen-activated protein kinase kinase kinase 20 (Homo sapiens) (Q9NYL2 2-800 limits assumed): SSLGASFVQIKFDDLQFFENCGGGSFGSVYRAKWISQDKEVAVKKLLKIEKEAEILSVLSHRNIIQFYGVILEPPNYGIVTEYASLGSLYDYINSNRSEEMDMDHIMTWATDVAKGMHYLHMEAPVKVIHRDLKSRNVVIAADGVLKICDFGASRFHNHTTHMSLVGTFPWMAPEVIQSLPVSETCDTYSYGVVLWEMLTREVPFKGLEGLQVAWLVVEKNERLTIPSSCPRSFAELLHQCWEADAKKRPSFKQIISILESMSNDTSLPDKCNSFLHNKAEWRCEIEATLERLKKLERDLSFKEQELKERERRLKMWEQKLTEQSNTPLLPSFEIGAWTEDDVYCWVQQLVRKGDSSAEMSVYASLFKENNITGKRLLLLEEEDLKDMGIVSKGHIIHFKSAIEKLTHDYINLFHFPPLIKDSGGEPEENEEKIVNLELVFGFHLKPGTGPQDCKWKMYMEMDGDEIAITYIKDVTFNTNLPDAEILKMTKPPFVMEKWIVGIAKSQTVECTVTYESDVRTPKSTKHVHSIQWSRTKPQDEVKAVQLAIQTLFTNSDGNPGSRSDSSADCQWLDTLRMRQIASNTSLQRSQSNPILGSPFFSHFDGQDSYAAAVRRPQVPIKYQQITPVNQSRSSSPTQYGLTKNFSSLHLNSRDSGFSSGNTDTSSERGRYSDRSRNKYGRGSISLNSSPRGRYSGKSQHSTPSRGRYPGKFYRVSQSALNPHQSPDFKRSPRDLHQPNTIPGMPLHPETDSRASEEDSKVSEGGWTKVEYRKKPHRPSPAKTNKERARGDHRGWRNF
Assay [4] has as its target Serine/threonine-protein kinase 24 (Homo sapiens) (UniProt Q9Y6E0). Description: Inhibition of human recombinant MST3 at 40 nM related to control ULK1.
The target in assay [5] is MAP kinase-activated protein kinase 2 (Homo sapiens) (UniProt P49137). Description: Inhibition of human recombinant MAPKAPK2 at 40 nM related to control ULK1.
Chain of MAP kinase-activated protein kinase 2 (Homo sapiens) (P49137 whole entry, looked up): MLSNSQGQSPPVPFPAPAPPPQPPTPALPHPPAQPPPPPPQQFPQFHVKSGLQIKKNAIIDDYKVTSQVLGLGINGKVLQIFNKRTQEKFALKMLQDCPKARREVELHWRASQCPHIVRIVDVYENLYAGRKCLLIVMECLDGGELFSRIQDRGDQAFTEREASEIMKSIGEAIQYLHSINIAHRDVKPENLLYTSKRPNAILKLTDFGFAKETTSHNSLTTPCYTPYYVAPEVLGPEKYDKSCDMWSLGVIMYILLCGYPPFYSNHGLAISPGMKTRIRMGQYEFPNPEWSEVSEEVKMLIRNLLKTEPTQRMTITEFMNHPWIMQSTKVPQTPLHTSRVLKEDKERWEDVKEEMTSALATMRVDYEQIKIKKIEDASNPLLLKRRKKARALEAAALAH
The target of assay [6] is Platelet-derived growth factor receptor beta (Homo sapiens) (UniProt P09619). Description: Inhibition of human recombinant PDGFRb at 500 nM related to control ULK1.
Chain of Platelet-derived growth factor receptor beta (Homo sapiens) (P09619 whole entry): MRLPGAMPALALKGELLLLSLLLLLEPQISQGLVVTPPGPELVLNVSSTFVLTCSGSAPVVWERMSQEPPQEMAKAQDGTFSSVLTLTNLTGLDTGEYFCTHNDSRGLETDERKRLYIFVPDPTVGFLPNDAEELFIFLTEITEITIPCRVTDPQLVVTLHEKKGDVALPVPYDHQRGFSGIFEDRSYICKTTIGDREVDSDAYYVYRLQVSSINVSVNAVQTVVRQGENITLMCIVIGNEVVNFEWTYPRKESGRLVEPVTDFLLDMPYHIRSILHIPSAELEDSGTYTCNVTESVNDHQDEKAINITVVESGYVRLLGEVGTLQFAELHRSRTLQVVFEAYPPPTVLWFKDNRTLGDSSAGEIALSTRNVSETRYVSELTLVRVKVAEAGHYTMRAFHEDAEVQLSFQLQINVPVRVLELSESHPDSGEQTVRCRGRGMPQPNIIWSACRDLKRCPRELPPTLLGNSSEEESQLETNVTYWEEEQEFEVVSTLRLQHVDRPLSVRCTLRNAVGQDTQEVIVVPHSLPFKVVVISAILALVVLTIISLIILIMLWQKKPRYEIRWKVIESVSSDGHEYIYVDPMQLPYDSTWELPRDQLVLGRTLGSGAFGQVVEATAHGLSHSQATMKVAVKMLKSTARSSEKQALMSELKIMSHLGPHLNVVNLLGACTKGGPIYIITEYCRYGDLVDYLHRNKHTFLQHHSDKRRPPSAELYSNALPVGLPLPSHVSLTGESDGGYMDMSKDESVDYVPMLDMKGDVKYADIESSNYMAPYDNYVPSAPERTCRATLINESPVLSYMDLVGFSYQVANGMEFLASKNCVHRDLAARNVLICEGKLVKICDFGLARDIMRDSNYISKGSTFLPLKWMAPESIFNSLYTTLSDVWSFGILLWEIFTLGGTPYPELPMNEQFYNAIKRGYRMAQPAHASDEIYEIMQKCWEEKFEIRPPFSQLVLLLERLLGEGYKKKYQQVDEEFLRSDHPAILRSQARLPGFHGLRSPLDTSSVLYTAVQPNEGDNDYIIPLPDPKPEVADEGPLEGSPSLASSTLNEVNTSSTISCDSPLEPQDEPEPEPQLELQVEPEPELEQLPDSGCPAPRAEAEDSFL
For assay [7], the target named is T2, Tyrosine-protein kinase ITK/TSK (Homo sapiens) (UniProt Q08881).
T2 sequence (whole entry): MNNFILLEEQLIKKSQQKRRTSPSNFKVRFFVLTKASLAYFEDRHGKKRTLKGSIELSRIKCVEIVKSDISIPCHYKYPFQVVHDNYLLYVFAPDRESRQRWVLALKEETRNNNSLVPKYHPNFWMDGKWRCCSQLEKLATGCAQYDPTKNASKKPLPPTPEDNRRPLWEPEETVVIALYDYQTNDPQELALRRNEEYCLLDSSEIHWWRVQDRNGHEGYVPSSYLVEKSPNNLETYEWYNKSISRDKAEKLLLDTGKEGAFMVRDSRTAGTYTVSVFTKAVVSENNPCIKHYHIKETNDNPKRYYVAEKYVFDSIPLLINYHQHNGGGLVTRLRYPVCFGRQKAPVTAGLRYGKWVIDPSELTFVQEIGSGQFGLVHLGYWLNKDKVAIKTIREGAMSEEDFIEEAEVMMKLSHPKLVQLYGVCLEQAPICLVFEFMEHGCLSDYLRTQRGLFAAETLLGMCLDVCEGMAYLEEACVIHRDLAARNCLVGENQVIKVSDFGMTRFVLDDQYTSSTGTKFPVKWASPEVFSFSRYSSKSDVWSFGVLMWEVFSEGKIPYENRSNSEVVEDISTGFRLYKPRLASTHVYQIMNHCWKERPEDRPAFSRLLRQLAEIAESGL
The assay is described as follows: Inhibition of human recombinant ITK at 500 nM in presence of ATP by radiometric assay relative to control.

Assay [8] has as its target T3, Serine/threonine-protein kinase 3 (Homo sapiens) (UniProt Q13188).
T3 sequence (whole entry): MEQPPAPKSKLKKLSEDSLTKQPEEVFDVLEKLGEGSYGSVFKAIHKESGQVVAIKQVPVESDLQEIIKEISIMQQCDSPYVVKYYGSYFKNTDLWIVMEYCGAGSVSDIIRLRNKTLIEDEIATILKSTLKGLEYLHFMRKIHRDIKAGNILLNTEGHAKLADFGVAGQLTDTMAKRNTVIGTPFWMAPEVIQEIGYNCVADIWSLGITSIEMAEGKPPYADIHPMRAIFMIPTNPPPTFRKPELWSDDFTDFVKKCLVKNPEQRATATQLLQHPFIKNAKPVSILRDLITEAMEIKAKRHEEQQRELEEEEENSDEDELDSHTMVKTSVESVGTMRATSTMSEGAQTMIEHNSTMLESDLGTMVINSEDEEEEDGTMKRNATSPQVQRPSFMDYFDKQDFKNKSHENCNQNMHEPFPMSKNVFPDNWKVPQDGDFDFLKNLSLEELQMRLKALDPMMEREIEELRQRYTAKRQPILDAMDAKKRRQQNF
The assay is described as follows: Inhibition of human recombinant MST2 at 500 nM related to control ULK1.

Chain of Serine/threonine-protein kinase 24 (Homo sapiens) (Q9Y6E0 whole entry, looked up): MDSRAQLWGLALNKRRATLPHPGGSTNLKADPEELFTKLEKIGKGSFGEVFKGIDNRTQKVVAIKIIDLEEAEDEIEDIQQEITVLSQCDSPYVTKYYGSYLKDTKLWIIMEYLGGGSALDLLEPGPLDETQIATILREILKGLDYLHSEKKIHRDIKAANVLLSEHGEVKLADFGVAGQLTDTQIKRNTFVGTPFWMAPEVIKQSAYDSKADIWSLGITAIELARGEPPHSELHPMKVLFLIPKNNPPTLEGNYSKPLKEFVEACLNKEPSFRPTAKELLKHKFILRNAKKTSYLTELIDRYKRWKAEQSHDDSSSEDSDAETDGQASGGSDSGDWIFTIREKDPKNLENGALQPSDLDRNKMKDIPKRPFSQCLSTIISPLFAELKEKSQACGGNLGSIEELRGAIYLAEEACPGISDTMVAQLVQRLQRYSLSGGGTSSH

For `CC(C)[C@H](NC(=O)c1cc(-c2cnn3cc(-c4ccc(OCCN5CCCCC5)cc4)cnc23)cs1)C(F)(F)F`, the fold change (FC) turned out to be 0.03 in assay [1] and 0 in assay [2]. Besides, the inhibition in assay [3] is 26%.
As for `O=C(N[C@@H](C1CC1)C(F)(F)F)c1cc(-c2cnn3cc(-c4ccc(F)cc4)cnc23)cs1`, the fold change (FC) in assay [4] was found to be 0.27; in assay [5] it was 0.
Take `CNC(=O)c1ccccc1Oc1nc(Nc2cc(OC)c(OC)c(OC)c2)ncc1Br`: the fold change (FC) in assay [6] and in assay [8] was 0 throughout. The inhibition in assay [7] turned out to be 1%.
